In assay [1] the target is T1, MET (Homo sapiens, UniProt P08581). Nature of the assay: Test B: Inhibition of the autophosphorylation of MET; ELISA technique (pppY1230,1234,1235) in MKN45 cells. The class given is cell-based. The following applies: 1 h treatment, PhosphoMET ELISA. Further details: Seed MKN45 cells into 96-well plates (Cell coat BD polylysine) at 20 000 cells/well; endogenous in cells; host or cells: MKN45 cells. The procedure, abridged:
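Adhered cells treated 1 h with six compound concentrations in duplicate, final 10 000 to 30 nM, against DMSO controls. Cells then lysed at 4° C for 30 min in Triton/SDS/deoxycholate buffer with phosphatase inhibitors. Phospho-MET measured by sandwich ELISA with anti-phospho MET antibody and HRP detection, absorbance at 450 nm.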
In general terms: In an ELISA, binding on a coated surface is turned into a signal by an enzyme label.
Target sequence in this assay (P08581 25-1390): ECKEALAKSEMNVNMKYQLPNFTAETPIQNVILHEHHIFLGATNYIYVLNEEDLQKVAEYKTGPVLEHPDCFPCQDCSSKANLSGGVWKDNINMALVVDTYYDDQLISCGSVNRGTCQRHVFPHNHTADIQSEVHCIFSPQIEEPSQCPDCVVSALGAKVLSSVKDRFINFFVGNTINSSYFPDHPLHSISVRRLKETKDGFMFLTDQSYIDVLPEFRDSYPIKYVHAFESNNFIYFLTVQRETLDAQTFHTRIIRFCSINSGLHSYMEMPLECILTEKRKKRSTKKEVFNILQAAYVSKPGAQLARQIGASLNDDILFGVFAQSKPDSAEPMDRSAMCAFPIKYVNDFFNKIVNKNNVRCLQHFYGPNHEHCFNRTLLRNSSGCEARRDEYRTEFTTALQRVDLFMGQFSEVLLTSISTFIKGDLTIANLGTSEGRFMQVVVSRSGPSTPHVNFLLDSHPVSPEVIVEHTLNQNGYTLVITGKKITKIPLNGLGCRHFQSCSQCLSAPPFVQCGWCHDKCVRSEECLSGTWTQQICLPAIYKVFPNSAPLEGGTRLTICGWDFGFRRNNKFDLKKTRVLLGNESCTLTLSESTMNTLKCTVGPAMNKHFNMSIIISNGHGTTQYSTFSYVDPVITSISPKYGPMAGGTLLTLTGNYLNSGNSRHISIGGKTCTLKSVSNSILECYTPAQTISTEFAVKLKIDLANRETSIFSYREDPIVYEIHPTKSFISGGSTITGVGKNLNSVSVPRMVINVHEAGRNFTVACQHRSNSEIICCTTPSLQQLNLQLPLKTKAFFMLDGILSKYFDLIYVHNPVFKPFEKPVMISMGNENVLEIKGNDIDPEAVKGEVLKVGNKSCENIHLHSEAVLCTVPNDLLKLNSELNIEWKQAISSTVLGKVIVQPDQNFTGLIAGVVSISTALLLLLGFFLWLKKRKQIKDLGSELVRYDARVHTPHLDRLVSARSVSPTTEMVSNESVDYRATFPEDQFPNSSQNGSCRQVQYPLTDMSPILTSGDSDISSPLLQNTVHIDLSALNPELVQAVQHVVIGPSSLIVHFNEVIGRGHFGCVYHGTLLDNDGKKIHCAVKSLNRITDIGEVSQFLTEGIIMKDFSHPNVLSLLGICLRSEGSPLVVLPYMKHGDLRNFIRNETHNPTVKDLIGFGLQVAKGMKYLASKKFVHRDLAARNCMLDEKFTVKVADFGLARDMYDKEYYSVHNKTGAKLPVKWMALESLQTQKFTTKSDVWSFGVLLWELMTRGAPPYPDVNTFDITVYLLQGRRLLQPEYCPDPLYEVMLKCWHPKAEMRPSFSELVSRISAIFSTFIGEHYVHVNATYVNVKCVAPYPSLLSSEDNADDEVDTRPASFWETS

Assay [2] relates to HCT116 cells, MKN45 cells. Nature of the assay: Test C: Measurement of cell proliferation by 14C-thymidine pulse. The class given is cell-based. The following applies: 14C-thymidine incorporation, 96 h of treatment; cell line not given. A digest of the protocol:
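HCT116 (2500/well, DMEM) and MKN45 (7500/well, RPMI), both with 10% FCS, treated after 4 h with 10 concentrations from 10 000 to 0.3 nM (3-fold, duplicate). ¹⁴C-thymidine (0.1 μCi/well) added at 72 h; incorporation read after 24 h pulse, 96 h total treatment.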
(Dividing cells build labelled thymidine or BrdU into new DNA.)

Assay [3] addresses T1, MET. Nature of the assay: Test A: HTRF MET assay in 96-well format. The class given is biochemical. On the set-up: The His-Tev-MET (956-1390) recombinant DNA in pFastBac (Invitrogen) is transfected into insect cells; His tag (N, cleaved yes); TEV cleavage site (N); made in house; host or cells: SF21 insect cells (baculovirus, pFastBac). Particulars: MET 5 nM, 10 μM ATP. A digest of the protocol: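 Purified human MET cytoplasmic domain (956-1390, His tag cleaved), 5 nM, with compound (0.17 nM–10 μM, 3% DMSO) in MOPS pH 7.4; 1 μg/ml poly-(GAT), 10 μM ATP, 5 mM MgCl2, 10 min at ambient temperature. HTRF read-out (streptavidin-XL/anti-pTyr Eu cryptate, 2 h); % inhibition from 665/620 ratios.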
Target sequence in this assay (P08581 956-1390): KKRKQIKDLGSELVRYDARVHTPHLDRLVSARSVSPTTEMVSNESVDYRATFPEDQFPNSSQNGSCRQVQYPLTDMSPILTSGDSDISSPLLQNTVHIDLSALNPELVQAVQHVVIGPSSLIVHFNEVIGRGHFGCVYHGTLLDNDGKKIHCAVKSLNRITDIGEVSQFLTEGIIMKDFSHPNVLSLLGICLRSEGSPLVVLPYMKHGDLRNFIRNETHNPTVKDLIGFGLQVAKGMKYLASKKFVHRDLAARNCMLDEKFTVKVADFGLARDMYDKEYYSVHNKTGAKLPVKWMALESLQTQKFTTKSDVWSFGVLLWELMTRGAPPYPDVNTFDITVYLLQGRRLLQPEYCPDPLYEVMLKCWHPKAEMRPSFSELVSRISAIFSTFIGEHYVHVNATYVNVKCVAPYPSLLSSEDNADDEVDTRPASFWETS
(Time-resolved FRET reads energy transfer from a long-lived donor to a nearby acceptor.)

Where a name gives a salt, the structure may show the parent alone.

In general, IC50 refers to the concentration that gives 50% inhibition. Consider `COCCNc1nc2ccc(Sc3nnc4ccc(-c5ccc(F)cc5)nn34)cc2s1` [Example 26, 6-{[6-(4-Fluorophenyl)[1,2,4]triazolo[4,3-b]pyridazin-3-yl]sulphanyl}-N-(2-methoxyethyl)-1,3-benzothiazol-2-amine], for which the figures for the IC50 in assay [1], in assay [2] and in assay [3] were < 100 nM, < 1000 nM and < 100 nM, respectively.

For `CC(CO)(CCl)COc1ccc2nnc(Sc3ccc4nc(NC(=O)OC(C)(C)C)sc4c3)n2n1` (stereo not drawn) [Example 52, 2-Methylpropan-2-yl[6-({6-[3-chloro-2-(hydroxymethyl)-2-methylpropoxy]-[1,2,4]triazolo[4,3-b]pyridazin-3-yl}sulphanyl)-1,3-benzothiazol-2-yl]carbamate], the half-inhibitory concentration (IC50) in assay [1] is < 100 nM; in assay [2], < 1000 nM; in assay [3], < 100 nM.

With `CN1CCN(CCNC(=O)Nc2nc3ccc(Sc4nnc5n4N=C(c4ccc(F)cc4)CC5)cc3s2)CC1` [Example 13, 1-(6-{[6-(4-Fluorophenyl)-7,8-dihydro[1,2,4]triazolo[4,3-b]pyridazin-3-yl]sulphanyl}-1,3-benzothiazol-2-yl)-3-[2-(4-methylpiperazin-1-yl)ethyl]urea], the concentration for half-maximal inhibition (IC50) in assay [1] was < 100 nM; in assay [2], < 1000 nM; in assay [3], < 100 nM.

With `CC(=O)Nc1nc2ccc(Sc3nnc4ccc(-c5ccc(F)cc5)nn34)cc2s1` [Example 41, N-(6-{[6-(4-Fluorophenyl)[1,2,4]triazolo[4,3-b]pyridazin-3-yl]sulphanyl}-1,3-benzothiazol-2-yl)acetamide], the concentration for half-maximal inhibition (IC50) in assay [1] was < 100 nM; in assay [2], < 1000 nM; in assay [3], < 100 nM.

With `CC(C)C(=O)Nc1nc2ccc(Sc3nnc4ccc(-c5ccc(F)cc5)nn34)cc2s1` [Example 66, N-(6-{[6-(4-Fluorophenyl)[1,2,4]triazolo[4,3-b]pyridazin-3-yl]sulphanyl}-1,3-benzothiazol-2-yl)-2-methylpropanamide], the IC50 in assay [1] is 100 to 500 nM; in assay [2], < 1000 nM; in assay [3], < 100 nM.

Take `O=C(NCCN1CCOCC1)Nc1nc2ccc(Sc3nnc4ccc(-c5ccc(F)cc5)nn34)cc2[nH]1` [Example 6, 1-(6-{[6-(4-Fluorophenyl)[1,2,4]triazolo[4,3-b]pyridazin-3-yl]sulphanyl}-1H-benzimidazol-2-yl)-3-(2-morpholin-4-ylethyl)urea]: the IC50 in assay [1] is < 100 nM; in assay [2], < 1000 nM; in assay [3] it was < 100 nM.

Consider `Nc1nc2ccc(Sc3nnc4ccc(OC5CCCCC5)nn34)cc2s1` [Example 63, 6-{[6-(Cyclohexyloxy)[1,2,4]triazolo[4,3-b]pyridazin-3-yl]sulphanyl}-1,3-benzothiazol-2-amine], for which the concentration for half-maximal inhibition (IC50) in assay [1] was 100 to 500 nM; in assay [2], < 1000 nM; in assay [3], < 100 nM.

Consider `O=C(Nc1nc2ccc(Sc3nnc4ccc(-c5ccc(F)cc5)nn34)cc2s1)N1CCOCC1` [Example 55, N-(6-{[6-(4-Fluorophenyl)[1,2,4]triazolo[4,3-b]pyridazin-3-yl]sulphanyl}-1,3-benzothiazol-2-yl)morpholine-4-carboxamide], for which the figures for the IC50 in assay [1], in assay [2] and in assay [3] were 100 to 500 nM, < 1000 nM and < 100 nM, respectively.

As to `O=C(NCCN1CCOCC1)Nc1nc2ccc(Sc3nnc4cccnn34)cc2s1` [Example 10, 1-(2-Morpholin-4-ylethyl)-3-[6-([1,2,4]triazolo[4,3-b]pyridazin-3-ylsulphanyl)-1,3-benzothiazol-2-yl]urea], the IC50 is < 100 nM in assay [1], < 1000 nM in assay [2] and < 100 nM in assay [3].

With `CN1CCN(c2ccc3nnc(Sc4ccc5nc(NC(=O)OC(C)(C)C)sc5c4)n3n2)CC1` [Example 19, 1,1-Dimethylethyl (6-{[6-(4-methylpiperazin-1-yl)[1,2,4]triazolo[4,3-b]pyridazin-3-yl]sulphanyl}-1,3-benzothiazol-2-yl)carbamate hydrochloride], the IC50 in assay [1] is < 100 nM; in assay [2], < 1000 nM; in assay [3], < 100 nM.

As for `O=C(Nc1nc2ccc(Sc3nnc4ccc(-c5ccc(F)cc5)nn34)cc2s1)Oc1ccccc1` [Example 33, Phenyl (6-{[6-(4-fluorophenyl)[1,2,4]triazolo[4,3-b]pyridazin-3-yl]sulphanyl}-1,3-benzothiazol-2-yl)carbamate], the IC50 in assay [1] was < 100 nM; in assay [2], < 1000 nM; in assay [3], < 500 nM.

For the compound `O=C(Nc1nc2ccc(Sc3nnc4ccc(-c5cccc(F)c5)nn34)cc2s1)C1CC1` [Example 67, N-(6-{[6-(3-Fluorophenyl)[1,2,4]triazolo[4,3-b]pyridazin-3-yl]sulphanyl}-1,3-benzothiazol-2-yl)cyclopropanecarboxamide], the IC50 was < 100 nM in assay [1], < 1000 nM in assay [2] and < 100 nM in assay [3].

For `O=C(NCCN1CCOCC1)Nc1nc2ccc(Sc3nnc4ccc(-c5cccc(F)c5)nn34)cc2s1` [Example 64, 1-(6-{[6-(3-Fluorophenyl)[1,2,4]triazolo[4,3-b]pyridazin-3-yl]sulphanyl}-1,3-benzothiazol-2-yl)-3-[2-(morpholin-4-yl)ethyl]urea], the IC50 was < 100 nM in assay [1], < 1000 nM in assay [2] and < 100 nM in assay [3].

Regarding `C[C@@H]1CN(CCNC(=O)Nc2nc3ccc(Sc4nnc5ccc(-c6ccc(F)cc6)nn45)cc3s2)C[C@H](C)O1` [Example 11, 1-{2-[(2R,6S)-2,6-dimethylmorpholin-4-yl]ethyl}-3-(6-{[6-(4-fluorophenyl)-[1,2,4]triazolo[4,3-b]pyridazin-3-yl]sulphanyl}-1,3-benzothiazol-2-yl)urea], the IC50 in assay [1] was < 100 nM; in assay [2], < 1000 nM; in assay [3], < 100 nM.

For the compound `CN1CCN(CCNC(=O)Nc2nc3ccc(Sc4nnc5ccc(-c6ccc(F)cc6)nn45)cc3s2)CC1` [Example 14, 1-(6-{[6-(4-Fluorophenyl)[1,2,4]triazolo[4,3-b]pyridazin-3-yl]sulphanyl}-1,3-benzothiazol-2-yl)-3-[2-(4-methylpiperazin-1-yl)ethyl]urea], the IC50 in assay [1] is < 100 nM; in assay [2], < 1000 nM; in assay [3], < 100 nM.

Consider `COc1ccc2nnc(Sc3ccc4nc(NC(=O)NCCN5CCOCC5)sc4c3)n2n1` [Example 23, 1-{6-[(6-Methoxy[1,2,4]triazolo[4,3-b]pyridazin-3-yl)sulphanyl]-1,3-benzothiazol-2-yl}-3-[2-(morpholin-4-yl)ethyl]urea], for which the results for the IC50 in assay [1], in assay [2] and in assay [3] were < 100 nM, < 1000 nM and < 100 nM, respectively.

Consider `CCC(C)CNc1nc2ccc(Sc3nnc4ccc(NCCOC)nn34)cc2s1` (stereo not drawn) [Example 57, N-(2-Methoxyethyl)-3-({2-[(2-methylbutyl)amino]-1,3-benzothiazol-6-yl}sulphanyl)[1,2,4]triazolo[4,3-b]pyridazin-6-amine], for which the IC50 in assay [1] is 100 to 500 nM; in assay [2], < 1000 nM; in assay [3] it was < 100 nM.

`Cn1cc(-c2ccc3nnc(Sc4ccc5nc(N)sc5c4)n3n2)cn1` [Example 43, 6-{[6-(1-Methyl-1H-pyrazol-4-yl)[1,2,4]triazolo[4,3-b]pyridazin-3-yl]sulphanyl}-1,3-benzothiazol-2-amine]: the concentration for half-maximal inhibition (IC50) in assay [1] was < 100 nM; in assay [2] it was < 1000 nM; in assay [3] it was < 100 nM.

Turning to `COCCNc1ccc2nnc(Sc3ccc4nc(NC(=O)NCCN5CCCC5)sc4c3)n2n1` [Example 48, 1-[6-({6-[(2-Methoxyethyl)amino][1,2,4]triazolo[4,3-b]pyridazin-3-yl}sulphanyl)-1,3-benzothiazol-2-yl]-3-[2-(pyrrolidin-1-yl)ethyl]urea], the IC50 in assay [1] was 100 to 500 nM; in assay [2] it was < 1000 nM; in assay [3], < 100 nM.

With `COCCNc1ccc2nnc(Sc3ccc4nc(NC(=O)CCCN5CCOCC5)sc4c3)n2n1` [Example 39, N-[6-({6-[(2-Methoxyethyl)amino][1,2,4]triazolo[4,3-b]pyridazin-3-yl}sulphanyl)-1,3-benzothiazol-2-yl]-4-(morpholin-4-yl)butanamide], the values for the IC50 in assay [1], in assay [2] and in assay [3] were < 100 nM, < 1000 nM and < 100 nM, respectively.

With `CC(C)(C)OC(=O)Nc1nc2ccc(Sc3nnc4ccc(N5CCOCC5)nn34)cc2s1` [Example 16, 1,1-Dimethylethyl (6-{[6-(morpholin-4-yl)[1,2,4]triazolo[4,3-b]pyridazin-3-yl]sulphanyl}-1,3-benzothiazol-2-yl)carbamate], the IC50 is < 100 nM in assay [1], < 1000 nM in assay [2] and < 100 nM in assay [3].

These data come from US9115134B2, “6-triazolopyridazine sulfanyl benzothiazole derivatives as MET inhibitors” (SANOFI, priority 2007, dated 2015).
